How the values were obtained:
Assay in all cases: Kinome-wide inhibition profiling
Assay type in all cases: biochemical
LATS1 = target: T1, LATS1 (Homo sapiens, UniProt O95835)
T1 construct: purchased Reaction Biology Corp
Experimental: (§1) In vitro CDK12/cyclinK assays for all compounds and in vitro kinome-wide inhibition profiling of 30d at 10 μM were performed by a CRO company (Reaction Biology Corp., San Diego, CA, USA).

IRAK4 = target: T2, IRAK4 (Homo sapiens, UniProt Q9NWZ3)
T2 construct: purchased Reaction Biology Corp
Experimental: as §1

CAMK2d = target: T3, CAMK2d (Homo sapiens, UniProt Q13557)
T3 construct: purchased Reaction Biology Corp
Experimental: as §1

PRKG2 = target: T4, PRKG2 (Homo sapiens, UniProt Q13237)
T4 construct: purchased Reaction Biology Corp
Experimental: as §1

MET = target: T5, MET (Homo sapiens, UniProt P08581)
T5 construct: purchased Reaction Biology Corp
Experimental: as §1

HIPK1 = target: T6, HIPK1 (Homo sapiens, UniProt Q86Z02)
T6 construct: purchased Reaction Biology Corp
Experimental: as §1

AKT3 = target: T7, AKT3 (Homo sapiens, UniProt Q9Y243)
T7 construct: purchased Reaction Biology Corp
Experimental: as §1

LTK = target: T8, LTK (Homo sapiens, UniProt P29376)
T8 construct: purchased Reaction Biology Corp
Experimental: as §1

JAK3 = target: T9, JAK3 (Homo sapiens, UniProt P52333)
T9 construct: purchased Reaction Biology Corp
Experimental: as §1

CAMK1d = target: T10, CAMK1d (Homo sapiens, UniProt Q8IU85)
T10 construct: purchased Reaction Biology Corp
Experimental: as §1

LOK = target: T11, LOK (Homo sapiens, UniProt O94804)
T11 construct: purchased Reaction Biology Corp
Experimental: as §1

EPHB3 = target: T12, EPHB3 (Homo sapiens, UniProt P54753)
T12 construct: purchased Reaction Biology Corp
Experimental: as §1

NEK5 = target: T13, NEK5 (Homo sapiens, UniProt Q6P3R8)
T13 construct: purchased Reaction Biology Corp
Experimental: as §1

MEK2 = target: T14, MEK2 (Homo sapiens, UniProt P36507)
T14 construct: purchased Reaction Biology Corp
Experimental: as §1

PKCzeta = target: T15, PKCzeta (Homo sapiens, UniProt Q05513)
T15 construct: purchased Reaction Biology Corp
Experimental: as §1

DCAMKL2 = target: T16, DCAMKL2 (Homo sapiens, UniProt Q8N568)
T16 construct: purchased Reaction Biology Corp
Experimental: as §1

MRCKa = target: T17, MRCKa (Homo sapiens, UniProt Q5VT25)
T17 construct: purchased Reaction Biology Corp
Experimental: as §1

FGFR4 = target: T18, FGFR4 (Homo sapiens, UniProt P22455)
T18 construct: purchased Reaction Biology Corp
Experimental: as §1

TIE2 = target: T19, TIE2 (Homo sapiens, UniProt Q02763)
T19 construct: purchased Reaction Biology Corp
Experimental: as §1

DYRK3 = target: T20, DYRK3 (Homo sapiens, UniProt O43781)
T20 construct: purchased Reaction Biology Corp
Experimental: as §1

TNIK = target: T21, TNIK (Homo sapiens, UniProt Q9UKE5)
T21 construct: purchased Reaction Biology Corp
Experimental: as §1

WEE1 = target: T22, WEE1 (Homo sapiens, UniProt P30291)
T22 construct: purchased Reaction Biology Corp
Experimental: as §1

LYN B = target: T23, LYN B (Homo sapiens, UniProt P07948)
T23 construct: purchased Reaction Biology Corp
Experimental: as §1

TRKC = target: T24, TRKC (Homo sapiens, UniProt Q16288)
T24 construct: purchased Reaction Biology Corp
Experimental: as §1

PKA = target: T25, PKA (Homo sapiens, UniProt P17612)
T25 construct: purchased Reaction Biology Corp
Experimental: as §1

MAPKAPK3 = target: T26, MAPKAPK3 (Homo sapiens, UniProt Q16644)
T26 construct: purchased Reaction Biology Corp
Experimental: as §1

FER = target: T27, FER (Homo sapiens, UniProt P16591)
T27 construct: purchased Reaction Biology Corp
Experimental: as §1

PRKCI = target: T28, PRKCI (Homo sapiens, UniProt P41743)
T28 construct: purchased Reaction Biology Corp
Experimental: as §1

QSK = target: T29, QSK (Homo sapiens, UniProt Q9Y2K2)
T29 construct: purchased Reaction Biology Corp
Experimental: as §1

CLK4 = target: T30, CLK4 (Homo sapiens, UniProt Q9HAZ1)
T30 construct: purchased Reaction Biology Corp
Experimental: as §1

SRMS = target: T31, SRMS (Homo sapiens, UniProt Q9H3Y6)
T31 construct: purchased Reaction Biology Corp
Experimental: as §1

TSSK3 = target: T32, TSSK3 (Homo sapiens, UniProt Q96PN8)
T32 construct: purchased Reaction Biology Corp
Experimental: as §1

PAK4 = target: T33, PAK4 (Homo sapiens, UniProt O96013)
T33 construct: purchased Reaction Biology Corp
Experimental: as §1

HIPK4 = target: T34, HIPK4 (Homo sapiens, UniProt Q8NE63)
T34 construct: purchased Reaction Biology Corp
Experimental: as §1

IRAK2 = target: T35, IRAK2 (Homo sapiens, UniProt O43187)
T35 construct: purchased Reaction Biology Corp
Experimental: as §1

DDR2 = target: T36, DDR2 (Homo sapiens, UniProt Q16832)
T36 construct: purchased Reaction Biology Corp
Experimental: as §1

MAP3K8 = target: T37, MAP3K8 (Homo sapiens, UniProt P41279)
T37 construct: purchased Reaction Biology Corp
Experimental: as §1

ASK1 = target: T38, ASK1 (Homo sapiens, UniProt Q99683)
T38 construct: purchased Reaction Biology Corp
Experimental: as §1

PLK2 = target: T39, PLK2 (Homo sapiens, UniProt Q9NYY3)
T39 construct: purchased Reaction Biology Corp
Experimental: as §1

ROCK1 = target: T40, ROCK1 (Homo sapiens, UniProt Q13464)
T40 construct: purchased Reaction Biology Corp
Experimental: as §1

CIT = target: T41, CIT (Homo sapiens, UniProt O14578)
T41 construct: purchased Reaction Biology Corp
Experimental: as §1

PDGFRb = target: T42, PDGFRb (Homo sapiens, UniProt P09619)
T42 construct: purchased Reaction Biology Corp
Experimental: as §1

TTBK2 = target: T43, TTBK2 (Homo sapiens, UniProt Q6IQ55)
T43 construct: purchased Reaction Biology Corp
Experimental: as §1

ERK1 = target: T44, ERK1 (Homo sapiens, UniProt P27361)
T44 construct: purchased Reaction Biology Corp
Experimental: as §1

T2 sequence (Q9NWZ3 whole entry): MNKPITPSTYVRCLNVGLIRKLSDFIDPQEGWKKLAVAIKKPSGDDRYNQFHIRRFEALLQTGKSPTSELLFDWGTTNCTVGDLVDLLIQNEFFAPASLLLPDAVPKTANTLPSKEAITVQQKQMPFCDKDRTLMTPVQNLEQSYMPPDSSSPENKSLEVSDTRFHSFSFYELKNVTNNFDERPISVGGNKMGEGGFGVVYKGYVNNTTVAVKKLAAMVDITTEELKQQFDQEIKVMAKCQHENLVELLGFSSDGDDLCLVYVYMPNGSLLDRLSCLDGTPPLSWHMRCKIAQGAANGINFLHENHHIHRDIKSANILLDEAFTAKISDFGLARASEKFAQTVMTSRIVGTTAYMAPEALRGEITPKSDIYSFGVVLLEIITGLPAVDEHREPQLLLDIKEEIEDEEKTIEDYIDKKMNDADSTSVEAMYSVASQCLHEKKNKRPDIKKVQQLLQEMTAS
T7 sequence (Q9Y243 whole entry): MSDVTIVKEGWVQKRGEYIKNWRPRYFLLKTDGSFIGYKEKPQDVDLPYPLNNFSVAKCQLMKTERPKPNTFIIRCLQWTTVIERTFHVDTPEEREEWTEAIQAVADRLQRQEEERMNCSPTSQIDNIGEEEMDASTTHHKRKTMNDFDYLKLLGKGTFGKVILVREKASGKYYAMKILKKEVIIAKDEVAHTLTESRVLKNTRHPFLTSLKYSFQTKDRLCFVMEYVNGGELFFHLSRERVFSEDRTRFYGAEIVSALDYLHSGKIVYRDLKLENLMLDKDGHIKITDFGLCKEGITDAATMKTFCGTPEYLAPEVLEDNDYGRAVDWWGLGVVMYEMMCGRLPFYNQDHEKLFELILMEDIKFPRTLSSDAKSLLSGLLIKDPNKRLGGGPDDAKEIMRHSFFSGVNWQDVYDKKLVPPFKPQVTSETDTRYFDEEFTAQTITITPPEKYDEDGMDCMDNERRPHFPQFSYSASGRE
T11 sequence (O94804 whole entry): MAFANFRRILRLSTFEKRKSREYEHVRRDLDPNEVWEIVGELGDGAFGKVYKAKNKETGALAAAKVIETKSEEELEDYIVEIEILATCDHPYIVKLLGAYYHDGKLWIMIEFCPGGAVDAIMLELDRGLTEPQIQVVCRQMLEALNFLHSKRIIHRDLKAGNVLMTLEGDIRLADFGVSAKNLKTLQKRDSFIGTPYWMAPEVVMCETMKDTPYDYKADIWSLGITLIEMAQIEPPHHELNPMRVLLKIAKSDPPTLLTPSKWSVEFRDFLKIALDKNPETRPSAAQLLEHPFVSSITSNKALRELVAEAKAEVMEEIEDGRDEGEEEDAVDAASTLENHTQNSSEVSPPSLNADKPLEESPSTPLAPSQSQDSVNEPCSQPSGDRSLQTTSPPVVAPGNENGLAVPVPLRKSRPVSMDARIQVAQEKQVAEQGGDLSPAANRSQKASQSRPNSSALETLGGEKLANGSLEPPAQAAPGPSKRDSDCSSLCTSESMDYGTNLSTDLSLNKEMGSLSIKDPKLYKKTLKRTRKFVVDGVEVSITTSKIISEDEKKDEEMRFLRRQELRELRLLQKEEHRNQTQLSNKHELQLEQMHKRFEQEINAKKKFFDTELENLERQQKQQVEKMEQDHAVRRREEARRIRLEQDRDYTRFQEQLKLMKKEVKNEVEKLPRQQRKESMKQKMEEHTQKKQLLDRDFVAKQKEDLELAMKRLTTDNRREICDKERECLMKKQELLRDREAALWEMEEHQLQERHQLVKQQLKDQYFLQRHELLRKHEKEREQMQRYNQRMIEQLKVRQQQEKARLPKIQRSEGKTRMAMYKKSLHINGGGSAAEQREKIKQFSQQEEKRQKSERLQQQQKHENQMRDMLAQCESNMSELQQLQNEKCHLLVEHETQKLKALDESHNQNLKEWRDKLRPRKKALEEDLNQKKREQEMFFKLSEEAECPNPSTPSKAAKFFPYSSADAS
T3 sequence (Q13557 whole entry): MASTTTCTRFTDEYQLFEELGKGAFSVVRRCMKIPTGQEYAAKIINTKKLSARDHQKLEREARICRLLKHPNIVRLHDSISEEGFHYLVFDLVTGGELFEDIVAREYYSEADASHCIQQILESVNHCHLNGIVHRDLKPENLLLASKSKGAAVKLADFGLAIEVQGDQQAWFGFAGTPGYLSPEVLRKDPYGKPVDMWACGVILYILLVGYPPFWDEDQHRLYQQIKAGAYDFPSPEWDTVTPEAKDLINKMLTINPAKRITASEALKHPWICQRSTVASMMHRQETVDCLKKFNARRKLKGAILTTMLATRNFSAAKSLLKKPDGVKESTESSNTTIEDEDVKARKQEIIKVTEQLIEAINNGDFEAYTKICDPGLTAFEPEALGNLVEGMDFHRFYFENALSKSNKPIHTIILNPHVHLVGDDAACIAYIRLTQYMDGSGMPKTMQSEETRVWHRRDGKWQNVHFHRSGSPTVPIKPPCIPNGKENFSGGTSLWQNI
T15 sequence (Q05513 whole entry): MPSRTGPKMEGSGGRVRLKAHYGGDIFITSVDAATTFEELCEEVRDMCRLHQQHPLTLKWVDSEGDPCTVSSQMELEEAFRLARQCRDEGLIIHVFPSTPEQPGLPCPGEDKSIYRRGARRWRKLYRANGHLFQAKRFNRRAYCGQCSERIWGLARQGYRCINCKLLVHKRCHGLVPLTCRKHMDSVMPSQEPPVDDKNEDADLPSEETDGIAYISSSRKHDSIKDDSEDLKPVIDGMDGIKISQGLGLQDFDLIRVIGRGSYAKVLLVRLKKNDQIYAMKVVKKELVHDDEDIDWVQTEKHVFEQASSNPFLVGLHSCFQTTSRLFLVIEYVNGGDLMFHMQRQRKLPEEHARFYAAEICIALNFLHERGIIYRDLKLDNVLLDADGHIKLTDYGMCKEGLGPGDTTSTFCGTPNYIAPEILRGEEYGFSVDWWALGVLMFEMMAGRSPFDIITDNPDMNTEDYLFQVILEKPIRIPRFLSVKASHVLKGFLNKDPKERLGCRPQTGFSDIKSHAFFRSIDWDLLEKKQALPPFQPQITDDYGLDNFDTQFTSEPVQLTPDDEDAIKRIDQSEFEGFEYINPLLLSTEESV
T8 sequence (P29376 17-864): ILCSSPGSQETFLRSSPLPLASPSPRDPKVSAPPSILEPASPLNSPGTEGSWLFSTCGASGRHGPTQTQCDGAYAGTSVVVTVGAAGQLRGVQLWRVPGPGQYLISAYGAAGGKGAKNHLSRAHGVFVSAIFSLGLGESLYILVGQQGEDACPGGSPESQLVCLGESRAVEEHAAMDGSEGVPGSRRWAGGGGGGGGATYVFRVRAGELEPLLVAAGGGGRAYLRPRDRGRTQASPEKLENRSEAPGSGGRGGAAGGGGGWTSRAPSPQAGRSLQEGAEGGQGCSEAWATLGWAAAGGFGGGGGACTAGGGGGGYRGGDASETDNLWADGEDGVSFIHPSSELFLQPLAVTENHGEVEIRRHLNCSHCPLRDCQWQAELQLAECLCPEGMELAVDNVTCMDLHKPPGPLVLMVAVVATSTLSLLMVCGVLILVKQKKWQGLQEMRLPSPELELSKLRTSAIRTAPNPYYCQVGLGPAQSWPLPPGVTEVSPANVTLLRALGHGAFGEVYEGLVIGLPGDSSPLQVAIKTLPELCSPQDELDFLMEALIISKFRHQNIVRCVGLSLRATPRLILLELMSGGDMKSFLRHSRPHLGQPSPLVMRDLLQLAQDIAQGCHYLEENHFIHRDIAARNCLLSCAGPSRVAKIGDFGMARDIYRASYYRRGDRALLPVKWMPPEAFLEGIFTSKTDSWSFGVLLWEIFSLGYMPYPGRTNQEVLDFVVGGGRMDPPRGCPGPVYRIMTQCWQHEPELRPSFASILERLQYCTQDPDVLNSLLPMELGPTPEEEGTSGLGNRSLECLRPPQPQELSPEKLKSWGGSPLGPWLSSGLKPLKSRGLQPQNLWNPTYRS
T12 sequence (P54753 34-998): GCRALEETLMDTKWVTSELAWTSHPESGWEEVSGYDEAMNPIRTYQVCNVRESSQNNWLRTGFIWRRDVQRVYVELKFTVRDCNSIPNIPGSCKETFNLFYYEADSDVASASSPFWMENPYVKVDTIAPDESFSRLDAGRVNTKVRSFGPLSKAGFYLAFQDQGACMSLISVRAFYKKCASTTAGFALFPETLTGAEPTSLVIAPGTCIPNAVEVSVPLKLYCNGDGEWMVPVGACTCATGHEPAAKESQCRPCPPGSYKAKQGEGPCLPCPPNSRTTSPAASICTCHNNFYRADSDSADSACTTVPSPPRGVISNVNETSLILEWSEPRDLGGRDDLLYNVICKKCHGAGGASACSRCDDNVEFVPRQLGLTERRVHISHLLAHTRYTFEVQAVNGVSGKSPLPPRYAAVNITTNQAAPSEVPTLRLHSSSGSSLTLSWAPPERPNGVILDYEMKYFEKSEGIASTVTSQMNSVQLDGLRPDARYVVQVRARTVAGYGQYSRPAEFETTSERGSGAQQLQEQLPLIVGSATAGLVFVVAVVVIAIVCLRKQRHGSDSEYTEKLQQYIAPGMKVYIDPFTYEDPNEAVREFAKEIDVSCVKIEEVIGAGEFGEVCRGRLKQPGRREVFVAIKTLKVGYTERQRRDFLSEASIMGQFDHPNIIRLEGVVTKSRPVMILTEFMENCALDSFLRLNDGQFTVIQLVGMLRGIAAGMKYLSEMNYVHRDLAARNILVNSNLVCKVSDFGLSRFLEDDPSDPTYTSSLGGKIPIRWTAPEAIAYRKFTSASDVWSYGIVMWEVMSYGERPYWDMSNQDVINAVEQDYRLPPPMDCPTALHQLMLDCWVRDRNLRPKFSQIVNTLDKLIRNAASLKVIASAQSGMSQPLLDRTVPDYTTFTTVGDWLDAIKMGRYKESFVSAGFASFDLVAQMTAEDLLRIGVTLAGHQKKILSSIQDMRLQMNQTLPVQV

**Q.** For CCn1cnc2c(NCc3ccc(-c4ccccn4)nc3)nc(-c3ccc(N)nc3)nc21 [Compound 30d, N-([2,2′-Bipyridin]-5-ylmethyl)-2-(6-aminopyridin-3-yl)-9-ethyl-9H-purin-6-amine], which remaining activity at 10 µM (LATS1) is on record?
**A.** 85%

**Q.** And the remaining activity at 10 µM (IRAK4)?
**A.** 94.8%

**Q.** And the remaining activity at 10 µM (CAMK2d)?
**A.** 61.7%

**Q.** And the remaining activity at 10 µM (PRKG2)?
**A.** 99.5%

**Q.** What about the remaining activity at 10 µM (MET) of the same compound?
**A.** 96.4%

**Q.** What about the remaining activity at 10 µM (HIPK1) of the same compound?
**A.** 93%

**Q.** And the remaining activity at 10 µM (AKT3)?
**A.** 96.1%

**Q.** And the remaining activity at 10 µM (LTK)?
**A.** 73.6%

**Q.** And the remaining activity at 10 µM (JAK3)?
**A.** 99.7%

**Q.** What about the remaining activity at 10 µM (CAMK1d) of the same compound?
**A.** 58%

**Q.** And the remaining activity at 10 µM (LOK)?
**A.** 41.4%

**Q.** And the remaining activity at 10 µM (EPHB3)?
**A.** 66%

**Q.** What about the remaining activity at 10 µM (NEK5) of the same compound?
**A.** 83.8%

**Q.** What about the remaining activity at 10 µM (MEK2) of the same compound?
**A.** 176%

**Q.** What about the remaining activity at 10 µM (PKCzeta) of the same compound?
**A.** 90.2%

**Q.** What about the remaining activity at 10 µM (DCAMKL2) of the same compound?
**A.** 55%

**Q.** And the remaining activity at 10 µM (MRCKa)?
**A.** 96.6%

**Q.** What about the remaining activity at 10 µM (FGFR4) of the same compound?
**A.** 87.4%

**Q.** And the remaining activity at 10 µM (TIE2)?
**A.** 34.8%

**Q.** What about the remaining activity at 10 µM (DYRK3) of the same compound?
**A.** 58.6%

**Q.** What about the remaining activity at 10 µM (TNIK) of the same compound?
**A.** 69%

**Q.** And the remaining activity at 10 µM (WEE1)?
**A.** 90.2%

**Q.** What about the remaining activity at 10 µM (LYN B) of the same compound?
**A.** 54.4%

**Q.** And the remaining activity at 10 µM (TRKC)?
**A.** 54.9%

**Q.** What about the remaining activity at 10 µM (PKA) of the same compound?
**A.** 93.1%

**Q.** And the remaining activity at 10 µM (MAPKAPK3)?
**A.** 100%

**Q.** What about the remaining activity at 10 µM (FER) of the same compound?
**A.** 52.3%

**Q.** And the remaining activity at 10 µM (PRKCI)?
**A.** 86.1%

**Q.** And the remaining activity at 10 µM (QSK)?
**A.** 30.2%

**Q.** And the remaining activity at 10 µM (CLK4)?
**A.** 28.7%

**Q.** What about the remaining activity at 10 µM (SRMS) of the same compound?
**A.** 96.8%

**Q.** And the remaining activity at 10 µM (TSSK3)?
**A.** 91.5%

**Q.** And the remaining activity at 10 µM (PAK4)?
**A.** 12.9%

**Q.** And the remaining activity at 10 µM (HIPK4)?
**A.** 43.9%

**Q.** And the remaining activity at 10 µM (IRAK2)?
**A.** 97.5%

**Q.** What about the remaining activity at 10 µM (DDR2) of the same compound?
**A.** 87.2%

**Q.** What about the remaining activity at 10 µM (MAP3K8) of the same compound?
**A.** 102%

**Q.** And the remaining activity at 10 µM (ASK1)?
**A.** 18.4%

**Q.** And the remaining activity at 10 µM (PLK2)?
**A.** 107%

**Q.** And the remaining activity at 10 µM (ROCK1)?
**A.** 97.2%

**Q.** And the remaining activity at 10 µM (CIT)?
**A.** 97.9%

**Q.** And the remaining activity at 10 µM (PDGFRb)?
**A.** 34.7%

**Q.** And the remaining activity at 10 µM (TTBK2)?
**A.** 97.3%

**Q.** What about the remaining activity at 10 µM (ERK1) of the same compound?
**A.** 9.4%

— article PMC9506414, “Novel 2,6,9-Trisubstituted Purines as Potent CDK Inhibitors Alleviating Trastuzumab-Resistance of HER2-Positive Breast Cancers” (Pharmaceuticals, 2022)
